The target in one assay is rat P2X7 (Rattus norvegicus (Rat), UniProt Q64663). Nature of the assay: P2X7 antagonism in recombinant rat P2X7 cells (column headed P2X7 Rat IC50). It counts as binding.
In assay [1] the target is T1, P2X7 (Homo sapiens (Human), UniProt Q99572). Nature of the assay: Radioligand binding ([3H]A-804598) to membranes of human P2X7-1321N1 cells. The settings on record: human P2X7-1321N1 membranes, tracer tritiated A-804598, 1 hour at 4° C. As to the method:
P2X7 Antagonism in Recombinant Human P2X7 Cells or Recombinant Rat P2X7 Cells:
human or rat P2X7-1321N1 cells were collected and frozen @ −80° C. On the day of the experiment, cell membrane preparations were made according to standard published methods. […] The compound can be prepared as described in the literature. […] The assay was terminated by filtration (GF/B filters pre-soaked with 0.3% PEI) and washed with washing buffer (Tris-HCl 50 mM). The IC50 generated in the binding assay was corrected for tracer concentration and affinity of the tracer to derive at the affinity (Ki) of the test compounds. The data are presented in Table 2 under the headings: P2X7 human Ki (μM) and P2X7 rat Ki (μM). Data are analyzed and graphed on Graphpad Prism 5. For analysis, each concentration point is averaged from triplicate values and the averaged values are plotted on Graphpad Prism.

For assay [2], the target named is T1, P2X7. Nature of the assay: P2X7 antagonism in human whole blood, IL-1β release (LPS + Bz-ATP, ELISA). The settings on record: LPS 30 ng/ml + Bz-ATP 1 mM. Type of assay: cell-based. The protocol:
P2X7 Antagonism in Human Peripheral Blood Mononuclear Cells (PBMCs) and Human Whole Blood.
Human blood was collected using a blood donor program. PBMCs were isolated from blood using a Ficoll density gradient technique. Briefly, blood was laid on Ficoll solution and centrifuged at ROOM TEMPERATURE for 20 minutes at 2000 rpm. The buffy layer (between red blood cells and plasma) was carefully collected by aspiration, washed with PBS and centrifuged again at 1500 rpm for 15 minutes. The resulting cell pellet was washed and plated on 96 well-plates for experiments. For the Human Whole Blood experiments, 150 μl of human blood was plated on 96 well-plates. Lipopolysaccharide (LPS) (30 ng/ml) was added to each well and incubated for 1 hour. Test compounds were then added and incubated for 30 minutes. The P2X7 agonist, 2′(3′)-O-(4-benzoylbenzoyl) adenosine 5′-triphosphate (Bz-ATP) was then added at a final concentration of 0.5 mM (PBMC) or 1 mM (blood). Cells were incubated for an additional 1.5 hours. At that point, supernatant was collected and stored for IL-1β assay using manufacturer's protocol for enzyme-linked immunosorbant assay (ELISA). Data was expressed as percent control, where control is defined as the difference in IL-1β release in LPS+Bz-ATP samples and LPS only samples. Data was plotted as response (% control) versus concentration to generate IC50 values. […] Data are analyzed and graphed on Graphpad Prism 5. For analysis, each concentration point is averaged from triplicate values and the averaged values are plotted on Graphpad Prism. The IC50 for each compound is then uploaded into 3DX.

For assay [3], the target named is T1, P2X7. The assay is described as follows: P2X7 antagonism in human peripheral blood mononuclear cells (PBMCs), IL-1β release (LPS + Bz-ATP, ELISA). It counts as cell-based. The settings on record: P2X7, 10 μM test compound, LPS 30 ng/ml + Bz-ATP 0.5 mM, read-out: PBMC @10 μM (% control). (In general: ELISA stands for enzyme-linked immunosorbent assay.)
The mark [4] stands for this setting: read-out: Human Whole Blood IC50.

Like-named read-outs stand apart in the source and are kept apart here.

Sequence of rat P2X7 (Q64663 whole entry): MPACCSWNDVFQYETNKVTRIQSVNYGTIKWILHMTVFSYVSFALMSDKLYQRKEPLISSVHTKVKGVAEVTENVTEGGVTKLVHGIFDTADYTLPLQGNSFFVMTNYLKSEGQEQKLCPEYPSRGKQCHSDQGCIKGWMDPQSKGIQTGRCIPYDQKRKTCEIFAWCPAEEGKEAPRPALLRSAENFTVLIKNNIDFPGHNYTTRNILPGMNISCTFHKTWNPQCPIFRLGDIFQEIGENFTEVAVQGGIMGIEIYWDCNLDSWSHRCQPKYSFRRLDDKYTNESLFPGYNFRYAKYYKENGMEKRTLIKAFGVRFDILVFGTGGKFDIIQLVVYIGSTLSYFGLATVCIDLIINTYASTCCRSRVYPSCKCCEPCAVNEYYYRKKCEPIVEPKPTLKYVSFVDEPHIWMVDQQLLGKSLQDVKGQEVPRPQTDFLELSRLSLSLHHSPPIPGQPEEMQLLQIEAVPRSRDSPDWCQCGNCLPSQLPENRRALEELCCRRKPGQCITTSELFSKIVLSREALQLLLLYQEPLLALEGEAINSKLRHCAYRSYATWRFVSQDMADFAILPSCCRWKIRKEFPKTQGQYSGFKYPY
T1 sequence (Q99572 whole entry): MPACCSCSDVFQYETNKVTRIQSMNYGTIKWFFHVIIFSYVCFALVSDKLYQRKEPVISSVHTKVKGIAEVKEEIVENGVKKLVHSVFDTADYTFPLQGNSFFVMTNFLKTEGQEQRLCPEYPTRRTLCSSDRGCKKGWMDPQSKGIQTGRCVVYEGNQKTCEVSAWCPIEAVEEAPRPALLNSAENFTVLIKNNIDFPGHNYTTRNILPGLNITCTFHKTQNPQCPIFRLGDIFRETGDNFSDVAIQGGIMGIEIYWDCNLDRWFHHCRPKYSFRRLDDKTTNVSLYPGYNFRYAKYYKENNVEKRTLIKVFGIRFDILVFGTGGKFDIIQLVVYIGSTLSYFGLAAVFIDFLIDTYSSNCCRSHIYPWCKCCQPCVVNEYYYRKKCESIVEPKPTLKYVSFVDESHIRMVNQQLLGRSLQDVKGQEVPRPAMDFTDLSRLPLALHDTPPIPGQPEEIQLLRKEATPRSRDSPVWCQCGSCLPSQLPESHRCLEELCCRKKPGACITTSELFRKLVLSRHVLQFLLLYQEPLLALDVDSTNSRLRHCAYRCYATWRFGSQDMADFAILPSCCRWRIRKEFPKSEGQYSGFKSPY

In general, IC50 refers to the concentration that inhibits the measured activity by half. A word on the Ki: it is the equilibrium dissociation constant of an inhibitor or competing ligand from its target. A high value points to lower affinity. On to `Cc1nc(-c2ccn[nH]2)c2c(n1)[C@H]1CCC[C@@H](C2)N1C(=O)c1ccc(Cl)cc1F` [Example 28, (4-chloro-2-fluorophenyl)((6S,10R)-2-methyl-4-(1H-pyrazol-5-yl)-5,6,7,8,9,10-hexahydro-6,10-epiminocycloocta[d]pyrimidin-11-yl)methanone], for which the results for the IC50 on rat P2X7 and on P2X7 [2] (setting [4]) were 7.94 µM and 0.423 µM, respectively. The compound further came in with an inhibition constant Ki at P2X7 [1] of 0.126 µM. The remaining activity at 10 µM at P2X7 [3] is -25.1%.
`Cc1nc(-c2ccn[nH]2)c2c(n1)[C@H]1CCC[C@@H](C2)N1C(=O)c1cccc(Cl)c1Cl` [Example 29, (2,3-dichlorophenyl)((6S,10R)-2-methyl-4-(1H-pyrazol-5-yl)-5,6,7,8,9,10-hexahydro-6,10-epiminocycloocta[d]pyrimidin-11-yl)methanone]: the IC50 on rat P2X7 was found to be 0.207 µM; at P2X7 [2] (Human Whole Blood IC50 (μM)) it was 0.008 µM. On P2X7 [1], this compound showed an inhibition constant (Ki) of 0.02 µM. For the same compound, the remaining activity at 10 µM at P2X7 [3] was -22.9%.
Take `Cc1nc(-c2ncccn2)c2c(n1)[C@H]1CCC[C@@H](C2)N1C(=O)c1cccc(C(F)(F)F)c1Cl` [Example 41, (2-chloro-3-(trifluoromethyl)phenyl)((6S,10R)-2-methyl-4-(pyrimidin-2-yl)-5,6,7,8,9,10-hexahydro-6,10-epiminocycloocta[d]pyrimidin-11-yl)methanone]: the IC50 at rat P2X7 turned out to be 0.0158 µM; on P2X7 [2] (Human Whole Blood IC50 (μM)) it was 0.021 µM. Moreover, the Ki at P2X7 [1] stood at 0.0295 µM. In addition, on P2X7 [3], the remaining activity at 10 µM was -5.6%.
For the compound `Cc1nc(-c2ncccn2)c2c(n1)[C@H]1CCC[C@@H](C2)N1C(=O)c1ccnc(C(F)(F)F)c1Cl` [Example 42, (3-chloro-2-(trifluoromethyl)pyridin-4-yl)((6S,10R)-2-methyl-4-(pyrimidin-2-yl)-5,6,7,8,9,10-hexahydro-6,10-epiminocycloocta[d]pyrimidin-11-yl)methanone], the IC50 is 0.157 µM on rat P2X7 and 0.107 µM at P2X7 [2] (setting [4]). Further, the inhibition constant Ki on P2X7 [1] was determined as 0.126 µM. Moreover, the remaining activity at 10 µM on P2X7 [3] is -16.1%.
For the compound `Cc1nc(-c2ncccn2)c2c(n1)[C@H]1CCC[C@@H](C2)N1C(=O)c1ccc(Cl)c(F)c1Cl` [Example 44, (2,4-dichloro-3-fluorophenyl)((6S,10R)-2-methyl-4-(pyrimidin-2-yl)-5,6,7,8,9,10-hexahydro-6,10-epiminocycloocta[d]pyrimidin-11-yl)methanone], the figures for the IC50 at rat P2X7 and at P2X7 [2] (setting [4]) were 0.251 µM and 0.156 µM, respectively. The same compound came in with a Ki at P2X7 [1] of 0.0501 µM. The remaining activity at 10 µM at P2X7 [3] was -11.6%.
Turning to `Cc1nc(-c2ncccn2)c2c(n1)[C@H]1CCC[C@@H](C2)N1C(=O)c1cccc(Cl)c1Cl` [Example 45, (2,3-dichlorophenyl)((6S,10R)-2-methyl-4-(pyrimidin-2-yl)-5,6,7,8,9,10-hexahydro-6,10-epiminocycloocta[d]pyrimidin-11-yl)methanone], the IC50 at rat P2X7 was 0.128 µM; at P2X7 [2] (Human Whole Blood IC50 (μM)), 0.064 µM. This compound also gave a Ki on P2X7 [1] of 0.0251 µM. The remaining activity at 10 µM on P2X7 [3] was -14.2%.
The corresponding values for `Cc1nc(-c2cnccn2)c2c(n1)[C@H]1CCC[C@@H](C2)N1C(=O)c1cccc(C(F)(F)F)c1Cl` [Example 46, (2-chloro-3-(trifluoromethyl)phenyl)((6S,10R)-2-methyl-4-(pyrazin-2-yl)-5,6,7,8,9,10-hexahydro-6,10-epiminocycloocta[d]pyrimidin-11-yl)methanone] are 0.0141 µM, 0.088 µM, 0.0316 µM and -4.2%.
The corresponding values for `Cc1nc(-c2cnccn2)c2c(n1)[C@H]1CCC[C@@H](C2)N1C(=O)c1ccc(Cl)c(F)c1Cl` [Example 47, (2,4-dichloro-3-fluorophenyl)((6S,10R)-2-methyl-4-(pyrazin-2-yl)-5,6,7,8,9,10-hexahydro-6,10-epiminocycloocta[d]pyrimidin-11-yl)methanone] are 0.245 µM, 0.04 µM, 0.0398 µM and -3.4%.
Regarding `Cc1nc(-c2cnccn2)c2c(n1)[C@H]1CCC[C@@H](C2)N1C(=O)c1cccc(C(F)(F)F)c1C` [Example 50, (2-methyl-3-(trifluoromethyl)phenyl)((6S,10R)-2-methyl-4-(pyrazin-2-yl)-5,6,7,8,9,10-hexahydro-6,10-epiminocycloocta[d]pyrimidin-11-yl)methanone], the 50% inhibitory concentration (IC50) was determined as 0.0678 µM on rat P2X7 and 0.158 µM on P2X7 [2] (setting [4]). For the same compound, at P2X7 [1], the Ki stood at 0.0933 µM. Besides, at P2X7 [3], the remaining activity at 10 µM is -2.2%.
Consider `Cc1nc(-c2ccc(F)cc2)c2c(n1)[C@H]1CCC[C@@H](C2)N1C(=O)c1cccc(C(F)(F)F)c1Cl` [Example 51, (2-chloro-3-(trifluoromethyl)phenyl)((6S,10R)-4-(4-fluorophenyl)-2-methyl-5,6,7,8,9,10-hexahydro-6,10-epiminocycloocta[d]pyrimidin-11-yl)methanone], for which the half-maximal inhibitory concentration (IC50) stood at 0.0166 µM on rat P2X7 and 0.043 µM at P2X7 [2] (Human Whole Blood IC50 (μM)). The same compound showed a Ki at P2X7 [1] of 0.0447 µM. The remaining activity at 10 µM on P2X7 [3] is -3%.
`Cc1nc(-c2ccc(F)cc2)c2c(n1)[C@H]1CCC[C@@H](C2)N1C(=O)c1cccc(C(F)(F)F)c1C` [Example 53, ((6S,10R)-4-(4-fluorophenyl)-2-methyl-5,6,7,8,9,10-hexahydro-6,10-epiminocycloocta[d]pyrimidin-11-yl)(2-methyl-3-(trifluoromethyl)phenyl)methanone]: the concentration for half-maximal inhibition (IC50) at rat P2X7 came to 0.191 µM; at P2X7 [2] (setting [4]), 0.131 µM. On P2X7 [1], the Ki is 0.0316 µM. Further, the remaining activity at 10 µM at P2X7 [3] stood at 0%.
As for `Cc1nc(-c2ccc(F)cc2)c2c(n1)[C@H]1CCC[C@@H](C2)N1C(=O)c1cccc(Cl)c1Cl` [Example 55, (2,3-dichlorophenyl)((6S,10R)-4-(4-fluorophenyl)-2-methyl-5,6,7,8,9,10-hexahydro-6,10-epiminocycloocta[d]pyrimidin-11-yl)methanone], the IC50 at rat P2X7 worked out at 0.217 µM; on P2X7 [2] (Human Whole Blood IC50 (μM)), 0.037 µM. The Ki on P2X7 [1] amounted to 0.105 µM. Besides, at P2X7 [3], the remaining activity at 10 µM is -1.6%.
The like results for `Cc1nc(-c2ccnn2C)c2c(n1)[C@H]1CCC[C@@H](C2)N1C(=O)c1cccc(C(F)(F)F)c1Cl` [Example 56, (2-chloro-3-(trifluoromethyl)phenyl)((6S,10R)-2-methyl-4-(1-methyl-1H-pyrazol-5-yl)-5,6,7,8,9,10-hexahydro-6,10-epiminocycloocta[d]pyrimidin-11-yl)methanone] were, in that order, 0.0116 µM, 0.048 µM, 0.1 µM and -2.9%.
As to `Cc1nc(-c2ccnn2C)c2c(n1)[C@H]1CCC[C@@H](C2)N1C(=O)c1cccc(C(F)(F)F)c1C` [Example 57, (2-methyl-3-(trifluoromethyl)phenyl)((6S,10R)-2-methyl-4-(1-methyl-1H-pyrazol-5-yl)-5,6,7,8,9,10-hexahydro-6,10-epiminocycloocta[d]pyrimidin-11-yl)methanone], the half-maximal inhibitory concentration (IC50) on rat P2X7 stood at 0.597 µM; on P2X7 [2] (setting [4]), 0.191 µM. Besides, on P2X7 [1], the Ki came to 0.191 µM. The remaining activity at 10 µM on P2X7 [3] was -0.3%.
Turning to `Cc1nc(-c2ccnn2C)c2c(n1)[C@H]1CCC[C@@H](C2)N1C(=O)c1ccc(Cl)c(F)c1Cl` [Example 58, (2,4-dichloro-3-fluorophenyl)((6S,10R)-2-methyl-4-(1-methyl-1H-pyrazol-5-yl)-5,6,7,8,9,10-hexahydro-6,10-epiminocycloocta[d]pyrimidin-11-yl)methanone], the IC50 at rat P2X7 was 0.805 µM; at P2X7 [2] (setting [4]), 0.13 µM. In addition, affinity at P2X7 [1] was put at a Ki of 0.0933 µM. The remaining activity at 10 µM at P2X7 [3] was -3.3%.
As for `Cc1nc(-c2ccnn2C)c2c(n1)[C@H]1CCC[C@@H](C2)N1C(=O)c1cccc(Cl)c1Cl` [Example 59, (2,3-dichlorophenyl)((6S,10R)-2-methyl-4-(1-methyl-1H-pyrazol-5-yl)-5,6,7,8,9,10-hexahydro-6,10-epiminocycloocta[d]pyrimidin-11-yl)methanone], the IC50 at rat P2X7 came to 1.09 µM; at P2X7 [2] (setting [4]) it was 0.372 µM. Besides, at P2X7 [1], the affinity corresponds to a Ki of 0.135 µM. In addition, the remaining activity at 10 µM on P2X7 [3] was -1.8%.
